Reference: patent US8741641B2, “Methods for evaluating the stage of ovarian cancer or the survival rate of an ovarian cancer patient” (Fujifilm Corporation, priority 2007, dated 2014)

Key:
CTGF gene = assay: RT-PCR analysis of CTGF gene expression in ovarian cancer cell lines after treatment with demethylating reagent or deacetylation inhibitory agent; assay type: cell-based; settings: ovarian cancer cell lines HNOA and RMG-II not expressing the CTGF gene
Procedure: D: Ovarian cancer cell lines (HNOA and […]) were treated (+) or not treated (−) with 5-aza-dCyd (5 μM) for 5 days or TSA (100 ng/ml) for 12 hours. The results of RT-PCR analysis on the CTGF gene in the ovarian cancer cell lines.
To examine the expression levels of the 7 above genes (the CTGF gene, the ENPP1 gene, the ENPP3 gene, the CRSP3 gene, the AKAP7 gene, the EPB41L2 gene, and the KIAA1913 gene), 24 types of ovarian cancer cell line, normal ovary, and a normal ovarian epithelial cell-derived immortalized cell line (OSE-2a) were subjected to reverse transcriptase (RT)-PCR. Specifically, a single-chain cDNA was synthesized from the RNA extracted from each cultured cell line using the SuperScript First-Strand Synthesis System (Invitrogen). Moreover, a glyceraldehyde-3-phosphate dehydrogenase (GAPDH) gene was used as a control. As a result, decreased expression levels of the CTGF gene, the ENPP1 gene, and the KIAA1913 gene were shown, compared with the case of normal ovary or OSE-2a cells (FIG. 1D), although chromosomal region 6q23.1-23.2 had not undergone homozygous deletion. This may be due to a mechanism other than genomic deletion, such as an epigenetic phenomenon in ovarian cancer cell lines. Moreover, in the above experiment, the ARG1 gene was not subjected to examination, since the gene is not expressed in the ovary according to the results of analyzing the gene expression database (ncbi.Nlm.nih.gov and http://www.lsbm.org/database/index.html).
To examine if suppressed CTGF gene expression is due to DNA methylation, ovarian cancer cell lines (HNOA and RMG-II) not expressing the CTGF gene were treated using 5 μM demethylating reagent 5-aza-dCyd for 5 days or using deacetylation inhibitory agent TSA (100 ng/ml) for 12 hours. RNAs were extracted from these cells and then CTGF gene expression was examined by RT-PCR (FIG. 1D).

[1] = test system: CpG islands of the CTGF gene; assay: Demethylation of CpG islands of the CTGF gene in ovarian cancer cells cultured with demethylating reagent; assay type: cell-based; settings: ovarian cancer cells cultured in the presence of the reagent

`CC(/C=C/C(=O)NO)=C\[C@@H](C)C(=O)c1ccc(N(C)C)cc1` [TSA] was tested, and the “CTGF gene expression (RT-PCR)” value (CTGF gene; 100 ng/ml for 12 hours) was “no differences”.

With `Nc1ncn([C@H]2C[C@H](O)[C@@H](CO)O2)c(=O)n1` [5-aza-dCyd, 5-azadeoxycytidine] the “CTGF gene expression (RT-PCR)” value (CTGF gene; 5 μM for 5 days) was “recovers its gene expression”, the “CTGF gene expression (RT-PCR)” value (CTGF gene; 5 μM for 5 days, listed as 5-azadeoxycytidine) was “recover the expression level of the CTGF gene” and the “demethylation of CpG islands” value [1] was “possible to demethylate such CpG islands”.
